Drawing on patent US20240116910A1, “Heterocycles as WIP1 Inhibitors” (PMV Pharmaceuticals, Inc., priority 2022, published 2024), this text covers IC50 for 18 compounds.

pIC50: −log10 of the molar value.

Assay [1] addresses recombinant His-tag Wip1 full length protein (amino acids #1-605) (Homo sapiens (Human), UniProt O15297). The experiment in a line: Wip1 full length phosphatase enzyme FDP assay. Type of assay: biochemical. As to conditions: fluorescein diphosphate (FDP) substrate, RT 2 hours, fluorescence Ex485/Em535. On the procedure: The Human Wip1 (2-420, aa 2-420) or Wip1 full length (aa 1-605) DNA sequence was codon optimized and synthesized by Genscript for insect cell expression. The open reading frame of Wip1(2-420) with a N-terminal-His6 affinity tag followed by a TEV cleavage site was subcloned sites into the pFastBac1 expression vector. The recombinant bacmid DNA was transfected in Sf9 insect cells for baculovirus production. After 72 hours infection, the Sf9 cells were harvested by centrifugation and resuspended in lysis buffer containing 50 mM Tris/HCl, pH 8.0, 500 mM NaCl, 20% glycerol, Benzonase 0.5% CHAPS and Roche cOmplete™ EDTA free protease inhibitors. Cells were disrupted with microfluidizer and the debris was removed by centrifugation at 185,000 g for 1 hour. The supernatant was subjected to HisTrap FF for affinity purification. Proteins were eluted with a linear gradient of 0-500 mM imidazole in HisTrap buffer containing 50 mM Tris/HCl, pH 8.0, 500 mM NaCl and 20% glycerol, 0.05% CHAPS. The eluted protein was dialyzed against dialysis buffer (20 mM MES, 100 mM NaCl, 20% glycerol, 0.5 mM TCEP, 0.05% CHAPS) followed purification via HiTrap SP HP column. The protein was eluted with a gradient of 100 mM-2 M NaCl in dialysis buffer. His6-[…] was finally concentrated and loaded onto a size-exclusion column (NiLoad 16/600 Superdex 200 pg, GE Healthcare) pre-equilibrated with 50 mM MOPS (pH 7.5), 200 mM NaCl, 20% glycerol, 1 mM TCEP, 0.05% CHAPS and 0.1 mM EGTA. The peak fractions containing purified Nis6-Wip1(2-420) were pooled and concentrated to 1.0 mg/mL and flash frozen at −80° C.
Wip1 Length and Wip1(2-420) Phosphatase Enzyme FDP Assays.
Test compounds (252 mM stock in DMSO) were diluted 3 folds in series in DMSO and 1.2 μl per well were added into 384-well polypropylene black plates (Nunc). Twelve μl per well of Assay Buffer (100 mM NaCl, 50 mM MOPS, pH 7.5, 0.8 mM CHAPS, 0.1 mM EGTA, 30 mM MgCl2, 0.3 mM TCEP, 0.2 mg/mL BSA) was added followed by […] per well of 50.4 nM recombinant His-tag Wip1 full length protein (amino acids #1-605) or recombinant His-tag Wip1(2-420) protein (amino acids #2-420) in Assay Buffer and the plate was incubated at RT (22° C.) for 5 min. Ten mM of fluorescein diphosphate (FDP) in DMSO was diluted to […] in Assay Buffer and […] per well was added to the plate and incubated at RT (22° C.) for 2 hours. […] per well of 64.1 mM EDTA in water were added to stop the enzyme reaction. The plate was centrifuged at 1,200 rpm (Eppendorf 5810R Plate centrifuge) for 1 minute and fluorescence intensity (Ex485/Em535) was measured on Perkin Elmer Victor Reader. EC50 values were calculated using either Prism (GraphPad) or ActivityBase software (IDBS), The IC50 results are provided in Table M.

In assay [2] the target is recombinant His-tag Wip1(2-420) protein (amino acids #2-420) (Homo sapiens (Human), UniProt O15297). In words: Wip1(2-420) phosphatase enzyme FDP assay. The class given is biochemical. As to conditions: fluorescein diphosphate (FDP) substrate, RT 2 hours, fluorescence Ex485/Em535; read-out: WIP1 (Truncated 2-420) FDP Assay: IC50.
Chain of recombinant His-tag Wip1(2-420) protein (amino acids #2-420) (O15297 2-420): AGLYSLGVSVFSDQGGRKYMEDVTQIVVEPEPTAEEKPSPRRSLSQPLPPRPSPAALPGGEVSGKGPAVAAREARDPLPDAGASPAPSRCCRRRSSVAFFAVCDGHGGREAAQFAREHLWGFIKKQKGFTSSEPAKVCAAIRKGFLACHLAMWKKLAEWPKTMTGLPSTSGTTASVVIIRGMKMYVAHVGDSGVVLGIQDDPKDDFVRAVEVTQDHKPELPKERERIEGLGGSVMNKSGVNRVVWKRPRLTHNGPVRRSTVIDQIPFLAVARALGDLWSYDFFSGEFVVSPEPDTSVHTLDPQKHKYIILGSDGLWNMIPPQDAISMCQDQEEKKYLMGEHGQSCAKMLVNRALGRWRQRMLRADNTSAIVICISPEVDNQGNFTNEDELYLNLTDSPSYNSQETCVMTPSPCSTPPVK

Chain of recombinant His-tag Wip1 full length protein (amino acids #1-605) (O15297 whole entry, the tested form may be a part): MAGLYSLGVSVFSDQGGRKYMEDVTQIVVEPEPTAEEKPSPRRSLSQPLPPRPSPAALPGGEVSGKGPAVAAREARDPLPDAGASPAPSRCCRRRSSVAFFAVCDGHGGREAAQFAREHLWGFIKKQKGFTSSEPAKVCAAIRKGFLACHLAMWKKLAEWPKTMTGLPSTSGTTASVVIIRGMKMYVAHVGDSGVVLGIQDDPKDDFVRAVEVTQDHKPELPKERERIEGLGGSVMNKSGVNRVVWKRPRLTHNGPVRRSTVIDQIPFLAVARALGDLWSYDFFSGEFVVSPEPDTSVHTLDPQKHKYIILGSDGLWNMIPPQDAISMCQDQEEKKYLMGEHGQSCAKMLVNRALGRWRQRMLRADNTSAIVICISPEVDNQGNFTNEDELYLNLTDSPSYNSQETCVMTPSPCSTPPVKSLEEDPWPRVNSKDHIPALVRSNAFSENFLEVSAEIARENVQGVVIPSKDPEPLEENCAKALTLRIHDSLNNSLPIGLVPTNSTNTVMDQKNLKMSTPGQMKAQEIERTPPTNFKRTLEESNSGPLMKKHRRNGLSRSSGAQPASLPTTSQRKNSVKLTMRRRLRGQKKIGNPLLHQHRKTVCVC

As usually defined, the pIC50 is −log10 of the IC50, conventionally taken in molar units. On to `Cc1ncc(Cl)cc1N[C@@H](C)c1ccc(C(=O)N[C@@H](CC2CCCC2)C(=O)N[C@H]2C[C@@H](F)C2)s1` [Compound 28, (2S)-2-({5-[(1S)-1-[(5-chloro-2-methylpyridin-3-yl)amino]ethyl]thiophen-2-yl}formamido)-3-cyclopentyl-N-[(1s,3s)-3-fluorocyclobutyl]propanamide], for which the negative logarithm of the IC50 (pIC50) is 8.15 in assay [1] and 8.40 in assay [2].
In the case of `Cc1ncc(Cl)cc1N[C@@H](C)c1ccc(C(=O)N[C@@H](CC2CCCC2)C(=O)N[C@H]2C[C@H](F)C2)s1` [Compound 29, (2S)-2-({5-[(1S)-1-[(5-chloro-2-methylpyridin-3-yl)amino]ethyl]thiophen-2-yl}formamido)-3-cyclopentyl-N-[(1r,3r)-3-fluorocyclobutyl]propanamide], the pIC50 in assay [1] is 8.15; in assay [2], 8.52.
With `Cc1ncc(Cl)cc1N[C@@H](C)c1ccc(C(=O)N[C@@H](CC2CCCC2)C(=O)N[C@@H]2C[C@@H]2F)s1` [Compound 30, (2S)-2-({5-[(1S)-1-[(5-chloro-2-methylpyridin-3-yl)amino]ethyl]thiophen-2-yl}formamido)-3-cyclopentyl-N-[(1R,2S)-2-fluorocyclopropyl]propanamide], the pIC50 in assay [1] is 8.00; in assay [2], 8.22.
The corresponding values for `Cc1ncc(Cl)cc1N[C@@H](C)c1ccc(C(=O)N[C@@H](CC2CCCC2)C(=O)NC23CC(C#N)(C2)C3)s1` [Compound 31, (2S)-2-({5-[(1S)-1-[(5-chloro-2-methylpyridin-3-yl)amino]ethyl]thiophen-2-yl}formamido)-N-{3-cyanobicyclo[1.1.1]pentan-1-yl}-3-cyclopentylpropanamide] are 7.80 and 8.00.
With `Cc1ncc(Cl)cc1N[C@@H](C)c1ccc(C(=O)N[C@@H](CC2CCCC2)C(=O)NC2CCN(C)CC2)s1` [Compound 32, (2S)-2-({5-[(1S)-1-[(5-chloro-2-methylpyridin-3-yl)amino]ethyl]thiophen-2-yl}formamido)-3-cyclopentyl-N-(1-methylpiperidin-4-yl)propanamide], the figures for the pIC50 in assay [1] and in assay [2] were 7.14 and 7.32, respectively.
`Cc1ncc(Cl)cc1N[C@@H](C)c1ccc(C(=O)N[C@@H](CC2CCCC2)C(=O)NC2CC(C#N)C2)s1` (stereo partly drawn) [Compound 33, (2S)-2-({5-[(1S)-1-[(5-chloro-2-methylpyridin-3-yl)amino]ethyl]thiophen-2-yl}formamido)-N-(3-cyanocyclobutyl)-3-cyclopentylpropanamide]: the figures for the pIC50 in assay [1] and in assay [2] were 7.96 and 8.10, respectively.
In the case of `Cc1ncc(Cl)cc1N[C@@H](C)c1ccc(C(=O)N[C@@H](CC2CCCC2)C(=O)NC2(C#N)CC2)s1` [Compound 34, (2S)-2-({5-[(1S)-1-[(5-chloro-2-methylpyridin-3-yl)amino]ethyl]thiophen-2-yl}formamido)-N-(1-cyanocyclopropyl)-3-cyclopentylpropanamide], the pIC50 in assay [1] was 7.47; in assay [2], 7.77.
For the compound `COc1ncc(Cl)cc1N[C@H](C)c1ccc(C(=O)N[C@@H](CC2CCCC2)C(=O)N[C@@H]2CC2(F)F)s1` [Compound 36, (2S)-2-({5-[(1R)-1-[(5-chloro-2-methoxypyridin-3-yl)amino]ethyl]thiophen-2-yl}formamido)-3-cyclopentyl-N-[(1R)-2,2-difluorocyclopropyl]propanamide], the negative-log IC50 (pIC50) is 8.00 in assay [1] and 8.10 in assay [2].
`CC[C@H](Nc1cc(Cl)cnc1C)c1ccc(C(=O)N[C@@H](CC2CCCC2)C(=O)NC2CC2)s1` [Compound 37, (2S)-2-({5-[(1S)-1-[(5-chloro-2-methylpyridin-3-yl)amino]propyl]thiophen-2-yl}formamido)-3-cyclopentyl-N-cyclopropylpropanamide]: the figures for the pIC50 in assay [1] and in assay [2] were 8.05 and 8.22, respectively.
The corresponding values for `COc1ncc(Cl)cc1N[C@@H](C)c1ccc(C(=O)N[C@@H](CC2CCCC2)C(=O)NC2CC2)s1` [Compound 38, (2S)-2-({5-[(1S)-1-[(5-chloro-2-methoxypyridin-3-yl)amino]ethyl]thiophen-2-yl}formamido)-3-cyclopentyl-N-cyclopropylpropanamide] are 8.05 and 8.15.
Regarding `CC[C@@H](Nc1cc(Cl)cnc1C)c1ccc(C(=O)N[C@@H](CC2CCCC2)C(=O)NC2CC2)s1` [Compound 39, (2S)-2-({5-[(1R)-1-[(5-chloro-2-methylpyridin-3-yl)amino]propyl]thiophen-2-yl}formamido)-3-cyclopentyl-N-cyclopropylpropanamide], the values for the negative-log IC50 (pIC50) in assay [1] and in assay [2] were 6.48 and 6.91, respectively.
As for `COc1ncc(Cl)cc1N[C@@H](C)c1ccc(C(=O)N[C@@H](CC2CCCC2)C(=O)N[C@@H]2CC2(F)F)s1` [Compound 40, (2S)-2-({5-[(1S)-1-[(5-chloro-2-methoxypyridin-3-yl)amino]ethyl]thiophen-2-yl}formamido)-3-cyclopentyl-N-[(1R)-2,2-difluorocyclopropyl]propanamide], the results for the pIC50 in assay [1] and in assay [2] were 6.74 and 6.83, respectively.
On the same counts, the results for `Cc1ncc(Cl)cc1N[C@@H](C)c1ccc(C(=O)N[C@@H](CC2CCCC2)C(=O)Nc2cccc(S(C)(=O)=O)c2)s1` [Compound 41, (2S)-2-({5-[(1S)-1-[(5-chloro-2-methylpyridin-3-yl)amino]ethyl]thiophen-2-yl}formamido)-3-cyclopentyl-N-(3-methanesulfonylphenyl)propanamide] are 8.15 and 8.30.
`Cc1ncc(Cl)cc1N[C@@H](C)c1ccc(C(=O)N[C@@H](CC2CCCC2)C(=O)NC2(C(F)(F)F)CC2)s1` [Compound 42, (2S)-2-({5-[(1S)-1-[(5-chloro-2-methylpyridin-3-yl)amino]ethyl]thiophen-2-yl}formamido)-3-cyclopentyl-N-[1-(trifluoromethyl)cyclopropyl]propanamide]: the negative-log IC50 (pIC50) is 7.82 in assay [1] and 7.92 in assay [2].
On the same counts, the results for `Cc1ncc(Cl)cc1N[C@@H](C)c1ccc(C(=O)N[C@@H](CC2CCCC2)C(=O)NC23CC(C(=O)O)(C2)C3)s1` [Compound 43, 3-[(2S)-2-({5-[(1S)-1-[(5-chloro-2-methylpyridin-3-yl)amino]ethyl]thiophen-2-yl}formamido)-3-cyclopentylpropanamido]bicyclo[1.1.1]pentane-1-carboxylic acid] are 7.80 and 7.89.
On the same counts, the results for `CNC(=O)C12CC(NC(=O)[C@H](CC3CCCC3)NC(=O)c3ccc([C@H](C)Nc4cc(Cl)cnc4C)s3)(C1)C2` [Compound 44, 3-[(2S)-2-({5-[(1S)-1-[(5-chloro-2-methylpyridin-3-yl)amino]ethyl]thiophen-2-yl}formamido)-3-cyclopentylpropanamido]-N-methylbicyclo[1.1.1]pentane-1-carboxamide] are 7.85 and 7.92.
The corresponding values for `Cc1ncc(Cl)cc1N[C@@H](C)c1ccc(C(=O)N[C@@H](CC2CCCC2)C(=O)NC23CC(C(N)=O)(C2)C3)s1` [Compound 45, 3-[(2S)-2-({5-[(1S)-1-[(5-chloro-2-methylpyridin-3-yl)amino]ethyl]thiophen-2-yl}formamido)-3-cyclopentylpropanamido]bicyclo[1.1.1]pentane-1-carboxamide] are 8.05 and 8.15.
Take `CC(c1ccc(C(=O)N[C@@H](CC2CCCC2)C(=O)NC2CC2)s1)N1CCc2cc(F)c(Cl)cc21` (stereo partly drawn) [Compound 46, (2S)-2-({5-[1-(6-chloro-5-fluoro-2,3-dihydro-1H-indol-1-yl)ethyl]thiophen-2-yl}formamido)-3-cyclopentyl-N-cyclopropylpropanamide]: the results for the pIC50 in assay [1] and in assay [2] were 7.64 and 7.80, respectively.
